Laboratory results as given in patent US11896573B2, “Pharmaceutical compositions and pharmacokinetics of a gamma-hydroxybutyric acid derivative” (priority 2020, dated 2024).
Values joined by “and” are separate entries in the source; they are usually repeats but may differ in a detail not shown here. Equal entries are not always repeated. Where two headings read alike, the source gives them in different places.

Key:
[1] = Food effect and relative bioavailability crossover study, Compound (1) vs sodium oxybate; conditions: 7.25 g Compound (1) oral; for AUC(0-inf) / AUC(0-t) / Cmax / half-life / Tmax: human, plasma, po, 7.25 g; for AUC(0-inf): Compound (1) plasma AUC0-inf; for Tmax: Compound (1) plasma Tmax
Wherever Purity (Area %) is given: time not given here.

For `CC(C)[C@H](N)C(=O)OCCCC(=O)O` [Compound (1), 4-((L-valyl)oxy)butanoic acid], the “plasma Compound (1) AUC0-tlast, Adjusted Geometric Mean Ratio (Fed vs Fasted)” value [1] was 1.28, the “plasma Compound (1) Cmax, Adjusted Geometric Mean Ratio (Fed vs Fasted)” value [1] was 0.65 and the “Compound (1) plasma AUC0-inf, Max” value ([1]; Fasted) was 30800 ng·h/mL. For the same molecule, the “Compound (1) plasma AUC0-inf, Min” value ([1]; Fasted) was 9500 ng·h/mL, the “Compound (1) plasma AUC0-tlast, Max” value ([1]; Fasted) was 36100 ng·h/mL and the “Compound (1) plasma AUC0-tlast, Min” value ([1]; Fasted) was 9400 ng·h/mL. The “Compound (1) plasma Cmax, Max” value ([1]; Fasted) was 43600 ng/mL, the “Compound (1) plasma Cmax, Min” value ([1]; Fasted) was 9400 ng/mL and the “Compound (1) plasma T1/2, Max” value ([1]; Fasted) was 114 min. The “Compound (1) plasma T1/2, Min” value ([1]; Fasted) was 16.2 min, the “Compound (1) plasma AUC0-inf, Max” value ([1]; Fed) was 39000 ng·h/mL and the “Compound (1) plasma AUC0-inf, Min” value ([1]; Fed) was 16000 ng·h/mL. The “Compound (1) plasma AUC0-tlast, Max” value ([1]; Fed) was 38600 ng·h/mL, the “Compound (1) plasma AUC0-tlast, Min” value ([1]; Fed) was 15900 ng·h/mL and the “Compound (1) plasma Cmax, Max” value ([1]; Fed) was 27800 ng/mL. For the same molecule, the “Compound (1) plasma Cmax, Min” value ([1]; Fed) was 5500 ng/mL, the “Compound (1) plasma T1/2, Max” value ([1]; Fed) was 69 min and the “Compound (1) plasma T1/2, Min” value ([1]; Fed) was 16.2 min. For the same molecule, the “Compound (1) plasma Tmax, Max” value ([1]; Fed) was 90 min, the AUC(0-inf) ([1]; Mean, Fasted) was 22400 ng·h/mL and the AUC(0-inf) ([1]; Mean, Fed) was 29000 ng·h/mL. For the same molecule, the AUC(0-inf) ([1]; Median, Fasted) was 20400 ng·h/mL, the AUC(0-inf) ([1]; Median, Fed) was 29100 ng·h/mL and the AUC(0-t) ([1]; Compound (1) plasma AUC0-tlast, Mean, Fasted) was 23900 ng·h/mL. For the same molecule, the AUC(0-t) ([1]; Compound (1) plasma AUC0-tlast, Mean, Fed) was 28800 ng·h/mL, the AUC(0-t) ([1]; Compound (1) plasma AUC0-tlast, Median, Fasted) was 22500 ng·h/mL and the AUC(0-t) ([1]; Compound (1) plasma AUC0-tlast, Median, Fed) was 29000 ng·h/mL. The Cmax ([1]; Compound (1) plasma Cmax, Mean, Fasted) was 27700 ng/mL, the Cmax ([1]; Compound (1) plasma Cmax, Mean, Fed) was 18100 ng/mL and the Cmax ([1]; Compound (1) plasma Cmax, Median, Fasted) was 27300 ng/mL. It also gave a Cmax ([1]; Compound (1) plasma Cmax, Median, Fed) of 17300 ng/mL, a half-life ([1]; Compound (1) plasma T1/2, Mean, Fasted) of 32.4 min and a half-life ([1]; Compound (1) plasma T1/2, Mean, Fed) of 38.4 min. It also gave a half-life ([1]; Compound (1) plasma T1/2, Median, Fasted) of 21 min, a half-life ([1]; Compound (1) plasma T1/2, Median, Fed) of 35.4 min and a Tmax ([1]; Median, Fasted) of 45 min. For the same molecule, the Tmax ([1]; Median, Fed) was 30 min, the AUC(0-t) ([1]; plasma Compound (1) AUC0-tlast, Adjusted Geometric Mean, Fasted) was 21000 ng·h/mL and the AUC(0-t) ([1]; plasma Compound (1) AUC0-tlast, Adjusted Geometric Mean, Fed) was 27000 ng·h/mL. The Cmax ([1]; plasma Compound (1) Cmax, Adjusted Geometric Mean, Fasted) was 25400 ng/mL, the Cmax ([1]; plasma Compound (1) Cmax, Adjusted Geometric Mean, Fed) was 16500 ng/mL and the “Purity (Area %)” value (pH 1.2) was 99.25 Area % and 99.22 Area % and 98.95 Area %. For the same molecule, the “Purity (Area %)” value (pH 4.5) was 99.25 Area % and 99.05 Area % and 98.35 Area %, the “Purity (Area %)” value (pH 6.8) was 99.08 Area % and 97.58 Area % and 93.14 Area % and the “Purity (Area %)” value (pH 7.4) was 98.84 Area % and 95.74 Area % and 87.89 Area %.
